Legend:
[1] = tested on: vancomycin resistant Enterococcus faecium (“VRE”); conditions: addition to a growth medium; cited from earlier work
[2] = tested on: TLR-7; conditions: mouse macrophages; cited from earlier work
[3] = tested on: TNF-α mRNA; experiment: TNF-α mRNA expression in human T cell line Jurkat clone E6-1 (real-time RT-PCR); format: cell-based
Experimental: (§1) The mouse macrophage cell line, RAW 264.7 (American Tissue Type Culture Collection (ATCC); Manassas, Va.), was cultured in Dulbucco's modified Eagle's medium (DMEM; ATCC) supplemented with 10% heat inactivated fetal calf serum […] (Invitrogen; Carlsbad, Calif.), 100 μg/ml streptomycin and 100 U/ml penicillin (Invitrogen), and 2 mM L-glutamine (Invitrogen). The human T cell line, Jurkat clone E6-1 (ATCC) was cultured in RPMI-1640 medium (Invitrogen) supplemented as described above. The human monocyte cell line, THP-1 (ATCC) was cultured much like the Jurkat cultures plus the addition of 1 mM sodium pyruvate (Gibco-Invitrogen). THP-1 cells were stimulated with 200 nM of phorbol 12-myristate 13-acetate (PMA; Sigma-Aldrich, St. Louis, Mo.) for 48 hours to differentiate the cells into macrophage-like cells. Cells were then washed three times every 24 hours with fresh medium.
(§2) Dose response experiments were performed following exposure of the RAW 264.7, Jurkat, and THP-1 cells to varying doses of creatinine HCl ([…]; Sigma-Aldrich). Control cultures contained no creatinine HCl, only growth medium. A dose of 10 mM creatinine HCl was chosen for use in these studies. The 10 mM concentration is physiologically relevant to individuals supplementing with 5 grams of creatine for their regimen and then converted into creatinine.
(§3) RAW, Jurkat, and THP-1 cells were treated in 6-well plates at 80-90% confluent (4.14×10^6 cells/ml, 2.6×10^7 cells/ml, and 5.26×10^5 cells/ml, respectively). All cells were lysed in 1 ml of Trizol (Invitrogen). After homogenization, chloroform was added to samples and nucleic acids extracted per the manufacturer's instructions. Nucleic acids were precipitated with isopropyl alcohol (Fisher, Pittsburgh, Pa.). Following centrifugation, the resulting pellets were washed with 75% ethanol and air dried. RNA was re-suspended in 50 μl of UltraPure distilled water (Invitrogen). Residual DNA was removed from the samples by treatment with RQ1 DNase (Promega, Madison, Wis.) at 37° C. for 1 hour per the manufacturer's protocol. Samples were extracted with phenol:chloroform:[…] alcohol (25:24:1) (Invitrogen) and the RNA was precipitated with 1/10 volume of 3M sodium acetate (pH=5.2) and 3 volumes of 100% ethanol. Samples were frozen at […] for a minimum of 2 hours. After centrifugation, the samples were washed with 75% ethanol, air dried, and resuspended in 20 μl of UltraPure distilled water (Invitrogen) and stored at −80° C. until time of use, RNA was quantified using a NanoDrop-1000 Spectrophotometer with the program ND-1000 V3.8.1 (Thermo Fisher Scientific, Wilmington, Del.).
(§4) Reverse transcription (Improm-II Reverse Transcription System, Promega) followed by real-time PCR analysis was performed in 20 μL volumes containing 1 μl of cDNA corresponding to 40 ng of DNase-treated RNA in the RT reaction, gene specific internal primers (0.5 μM of each primer), and 1× SsoFast EvaGreen Supermix (Bio-Rad, Hercules, Calif.). The primers were synthesized by Integrated DNA Technologies (IDT, Coralville, Iowa) and have 100% sequence homology to the […] or human genome. The primer sequences are listed below in Table 1.
(§5) The PCR was performed using the following conditions: 95° C. for 30 sec, 40 cycles of 95° C. for 5 sec, and 57° C. for 5 sec using a CFX96 Real-Time Detection System (Bio-Rad), GAPDH was used as a housekeeping gene to normalize mRNA levels between samples. Data was analyzed using the Bio-Rad CFX Manager V1.6.541.1028 software (Bio-Rad). The calibrator in the experiments was the sample obtained from control-treated cells. Copy numbers of targeted mRNAs were expressed as ratios of GAPDH mRNA levels. Relative quantitation was determined by the comparative CT method (ΔΔCT method) in which the formula is expressed as: 2^−ΔΔCT(1).
(§6) RT-PCR data was analyzed by two-way analysis of variance (ANOVA) with a Bonferroni's post-test. P values≤0.05 were considered statistically significant. […]

[4] = tested on: fungi; conditions: cited from earlier work
[5] = tested on: TLR-2; conditions: mouse macrophages; cited from earlier work
[6] = tested on: TNF-α mRNA; experiment: TNF-α mRNA expression in mouse macrophage cell line RAW 264.7 (real-time RT-PCR); format: cell-based
Experimental: as §1, §2, §3, §4, §5, §6

[7] = tested on: TLR-3; conditions: mouse macrophages; cited from earlier work
[8] = tested on: TLR-4; conditions: mouse macrophages; cited from earlier work
[9] = tested on: TNF-α mRNA; experiment: TNF-α mRNA expression in human macrophage cell line THP-1 (real-time RT-PCR); format: cell-based
Experimental: as §1, §2
RAW, Jurkat, and THP-1 cells were treated in 6-well plates at 80-90% confluent (4.14×10^6 cells/ml, 2.6×10^7 cells/ml, and 5.26×10^5 cells/ml, respectively). All cells were lysed in 1 ml of Trizol (Invitrogen). After homogenization, chloroform was added to samples and nucleic acids extracted per the manufacturer's instructions. Nucleic acids were precipitated with isopropyl alcohol (Fisher, Pittsburgh, Pa.). Following centrifugation, the resulting pellets were washed with 75% ethanol and air dried. […] After centrifugation, the samples were washed with 75% ethanol, air dried, and resuspended in 20 μl of UltraPure distilled water (Invitrogen) and stored at −80° C. until time of use, RNA was quantified using a NanoDrop-1000 Spectrophotometer with the program ND-1000 V3.8.1 (Thermo Fisher Scientific, Wilmington, Del.). […]
as §5, with “The calibrator in the experiments was the sample obtained from control-treated cells.” left out
RT-PCR data was analyzed by two-way analysis of variance (ANOVA) with a Bonferroni's post-test. […]

[10] = tested on: Gram negative and Gram positive bacteria; conditions: addition to a growth medium; cited from earlier work
[11] = tested on: TNF-α protein; experiment: Immunohistochemical staining of TNF-α protein expression in mouse macrophage cells (RAW 264.7); format: cell-based; conditions: 10 mM
Experimental: as §1
RAW cells were incubated with or without 10 mM creatinine (Sigma-Aldrich) for 24 or 48 hours. Staining was performed on cytospins which were fixed in cold acetone, air-dried, and rehydrated in phosphate buffered saline (PBS). Blocking was performed at room temperature for 20 minutes, followed by incubation with purified rat anti-mouse TNF-α antibody (BD Biosciences, San Diego, Calif.) overnight. […]

[12] = tested on: drug resistant Staphylococcus aureus (“MRSA”); conditions: addition to a growth medium; cited from earlier work
[13] = tested on: mouse macrophages; conditions: cited from earlier work
[14] = rats, acute or chronic inflammation induced by inflammatory agents, different doses; cited from earlier work

CN1CC(=O)N=C1N.Cl [creatinine HCl, creatinine hydrochloride]
bacteria in growth medium [1]: decreased | TLR-7 transcript levels [2]: reduced | TNF-α mRNA levels, of the control level ([3]; 10 mM, 20 minutes post-exposure, Jurkat): 25% | TNF-α mRNA levels ([3]; 10 mM, 30 minutes post-exposure, Jurkat): began increasing | TNF-α mRNA levels ([3]; 10 mM, 60 minutes post-exposure, Jurkat): control levels | TNF-α mRNA levels compared to the levels of control ([3]; 10 mM, within 10 minutes of exposure, Jurkat): 50% | reduction of mRNA levels in human T cells ([3]; about 10 mM, 20 minutes post-treatment): ≤ 75% | growth of fungi [4]: does not affect | TLR-2 transcript levels [5]: reduced | TNF-α mRNA as compared to the control (100%) ([6]; 10 mM, 10 minutes post-exposure, RAW 264.7): 28% | TNF-α mRNA as compared to the control (100%) ([6]; 10 mM, 20 minutes post-exposure, RAW 264.7): 13% | TNF-α mRNA levels ([6]; 10 mM, 40 minutes post-exposure, RAW 264.7): began to increase | TNF-α mRNA as compared to the control (100%) ([6]; 10 mM, 60 minutes post-exposure, RAW 264.7): 47% | decrease of TNF-α mRNA expression in mouse macrophages ([6]; about 10 mM, about 10 minutes post-treatment): ≥ 72% | reduction of TNF-α mRNA expression in mouse macrophages ([6]; about 10 mM, about 20 minutes post-treatment): ≤ 87% | TLR-3 transcript levels [7]: reduced | TLR-4 transcript levels [8]: reduced | TNF-α mRNA levels, of the control levels ([9]; 10 mM, 10 minutes post-exposure, THP-1): 41% | TNF-α mRNA levels ([9]; 10 mM, 20 minutes post-exposure, THP-1): remained below those of control-treated cells | TNF-α mRNA levels, of the control levels ([9]; 10 mM, 60 minutes post-exposure, THP-1): 50% | bacteria in growth medium [10]: decreased | TNF-α protein signal (immunohistochemical staining) compared to control-treated cells ([11]; 24 hours incubation): lower signals | TNF-α protein signal (immunohistochemical staining) compared to control-treated cells ([11]; 48 hours incubation): lower signals | bacteria in growth medium [12]: decreased | cell death [13]: No alterations

CN1CC(=O)N=C1N [creatinine]
Edema [14]: decreased

lipopolysaccharide [reference compound]
TNF-α mRNA expression ([3]; positive control, Jurkat, not shown in graphs): significant increase | TNF-α mRNA expression ([6]; positive control, RAW 264.7, not shown in graphs): significant increase | TNF-α mRNA expression ([9]; positive control, THP-1, not shown in graphs): significant increase

— patent publication US9993452B2, “Compositions and methods for treatment of inflammation” (Vireo Systems, Inc., priority 2014, dated 2018)
